Legend:
[1] = system: ovarian, liver and breast cancer; conditions: literature; cited from earlier work
[2] = literature; cited from earlier work
[3] = molecular target: E. coli TS (thymidylate synthase) (Escherichia coli, UniProt P0A884); assay: Inhibition constants against 5,10-methylenetetrahydrofolate for thymidylate synthase, E. coli enzyme (tritium release); type: biochemical
Protocol: (§1) Determination of Inhibition Constants Against 5,10-Methylenetetrahydrofolate for the Enzyme Thymidylate Synthase
(§2) Inhibition constants, Ki, slope and Ki, intercept [W. W. Cleland, Biochim. Biophys. […] The cofactor was present as the variable substrate under conditions of saturating radiolabelled 2'-deoxyuridine 5-monophosphate (dUMP). […] Assays of human TS also contained 1-5 μg/mL bovine serum albumin to stabilize the protein. Reactions were initiated by the addition of enzyme and were carried out for 5 minutes at 24° C., and then quenched by the addition of charcoal (15 mg in 0.1 mL H2 O). The quenched samples were centrifuged at 10,000 rpm for 12-15 min at […] to remove unreacted dUMP which had bound to the charcoal, and 0.1 mL of the supernatant was counted by liquid scintillation in the presence of 5 mL ecolume to determine the release of tritium label from the 5-position of the dUMP. […] Experimental results were analyzed by EZ-FIT, a nonlinear regression analysis program (Perrella Scientific, Springfield, Pa.) which was used to fit all data points simultaneously to a mixed noncompetitive inhibition scheme.

[4] = system: L1210 murine leukemia cells; assay: Inhibition of growth of tumor cells, L1210 murine leukemia (MTT); type: cell-based; conditions: Mus musculus, L1210, 72 h; for IC50: 3 days continuous exposure, MTT, read-out: Cell Culture IC50, L1210
Protocol: (§3) In Vitro Testing to Determine Inhibition of Growth of Tumor Cells
(§4) Growth was measured over 3 days (L1210) or 5 days (CCRF-CEM, GC3 /M TK^-) of continuous exposure to varying concentrations of each test compound, added 4 h. after initial cell plating, by the MTT-tetrazolium reduction assay of T. J. Mosmann [J. Immunol. Meth. […] Water insoluble derivatives were dissolved in DMSO and diluted to a final concentration of 0.5% solvent in cell cultures.

CCRF-CEM cells = assay: Inhibition of growth of tumor cells, CCRF-CEM human lymphoblastic leukemia (MTT); type: cell-based; conditions: for IC50: Homo sapiens, CCRF-CEM, 120 h, 5 days continuous exposure, MTT, read-out: Cell Culture IC50, CCRF-CEM
Protocol: as §3, §4

GC3/M TK- cells = assay: Inhibition of growth of tumor cells, thymidine kinase-deficient human colon adenocarcinoma GC3/M TK- (MTT); type: cell-based; conditions: for IC50: 5 days continuous exposure, MTT, read-out: Cell Culture IC50, GC3-M (TK-)
Protocol: as §3, §4

[5] = molecular target: human TS (thymidylate synthase) (Homo sapiens, UniProt P04818); assay: Inhibition constants against 5,10-methylenetetrahydrofolate for thymidylate synthase, human enzyme (tritium release); type: biochemical; conditions: cofactor as variable substrate, pH 7.6, 24° C., read-out: Ki Data, human thymidylate synthase
Sequence of human TS (thymidylate synthase) (P04818 2-313 limits assumed): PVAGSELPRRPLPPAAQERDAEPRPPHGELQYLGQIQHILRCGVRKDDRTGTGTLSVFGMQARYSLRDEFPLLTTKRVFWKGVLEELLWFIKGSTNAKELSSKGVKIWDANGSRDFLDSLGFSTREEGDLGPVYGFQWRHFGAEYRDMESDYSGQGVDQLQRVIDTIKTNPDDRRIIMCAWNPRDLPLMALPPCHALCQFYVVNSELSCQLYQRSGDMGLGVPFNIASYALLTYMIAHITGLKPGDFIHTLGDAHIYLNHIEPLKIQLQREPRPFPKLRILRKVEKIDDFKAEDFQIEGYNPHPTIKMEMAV
Protocol: as §1, §2

Sequence of E. coli TS (thymidylate synthase) (P0A884 whole entry): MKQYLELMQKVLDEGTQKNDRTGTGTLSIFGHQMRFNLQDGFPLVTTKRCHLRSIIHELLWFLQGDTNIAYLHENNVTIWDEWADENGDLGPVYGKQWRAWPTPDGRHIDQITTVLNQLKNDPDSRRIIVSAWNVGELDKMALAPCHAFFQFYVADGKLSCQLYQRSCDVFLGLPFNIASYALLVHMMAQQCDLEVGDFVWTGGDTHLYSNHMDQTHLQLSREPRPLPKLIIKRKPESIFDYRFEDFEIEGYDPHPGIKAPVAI

| Compound | activity against cancer [1] | toxicities [2] | Ki [3] | IC50 [4] | inhibition at 2.5 µM ([4]; @ > 2.5 μM, 3 days) | growth inhibition, CCRF-CEM (CCRF-CEM cells; @ > 2.5 μM, 5 days) | IC50 (CCRF-CEM cells) | growth inhibition, GC3-M (TK-) (GC3/M TK- cells; @ > 2.5 μM, 5 days) | IC50 (GC3/M TK- cells; Homo sapiens, GC3/MTK-, 120 h) | Ki [5] | inhibition at 25 µM (GC3/M TK- cells; Homo sapiens, GC3/MTK-, 120 h, @ > 25 μM, 5 days) |
| --- | --- | --- | --- | --- | --- | --- | --- | --- | --- | --- | --- |
| C#CCN(Cc1ccc2nc(N)[nH]c(=O)c2c1)c1ccc(C(=O)N[C@@H](CCC(=O)O)C(=O)O)cc1 [10-propargyl-5,8-dideazafolic acid] | activity against ovarian, liver and breast cancer | troublesome hepatic and renal toxicities | – | – | – | – | – | – | – | – | – |
| Cc1nc2cccc(Sc3cc[n+](Cc4ccccc4)cc3)c2c(=O)[nH]1 [Compound 22A] | – | – | 9.3 ± 1.6 µM | > 2.5 µM | 4% | none | > 2.5 µM | none | > 2.5 µM | 1.1 ± 0.3 µM | – |
| COc1ccc(-c2cncn2Cc2cccc3nc(C)[nH]c(=O)c23)cc1 [Compound 33A] | – | – | 36 ± 1.5 µM | 25 µM | – | – | 18 µM | – | > 25 µM | 47 ± 17 µM | 20% |

— patent publication US5430148A, “Antiproliferative quinazolines” (Agouron Pharmaceuticals, Inc., priority 1992, dated 1995)
